Counter-ions that a name gives are not always drawn. Like-named read-outs stand apart in the source and are kept apart here. Starred links: 1 amine or outer side, 2 acyl side, 3 side chain; linkers in the order of their positions; H or OH if unused. Positions of bridges follow the written chain, without caps; N, C: chain ends. Non-standard residues stand in square brackets, D forms with d. Residues, ends and D or L forms follow the SMILES beside them. Chains are numbered I, II in the order given. Actinocin(9to1) = Cc1c2oc3c(C)ccc(C(=O)[*:1])c3nc-2c(C(=O)[*:2])c(N)c1=O; NMeV = CN[C@H](C(=O)O)C(C)C; Sar = CNCC(=O)O
How the values were obtained:
[1] = tested on: bloodstream form Lister 427 T. brucei; experiment: Growth inhibition of T. brucei bloodstream forms (SYBR Green I); type: cell-based; settings: Trypanosoma brucei, read-out: T. brucei EC50
Experimental: (§1) L. mexicana (MNYZ/BZ/62/M379) or L. donovani (LdBob strain) parasites expressing the Renilla luciferase gene from a rRNA gene locus were used to infect J774A.1 macrophages. Growth of intracellular amastigotes was measured using a luminescence assay, as detailed previously. The growth inhibitor activities of compounds were tested against bloodstream form Lister 427 T. brucei in 96-well plates containing 1 X 10^5 parasites per well in 0.2 ml HMI-11 medium (Gibco/Thermo Fisher). Compounds (2 μl volumes in DMSO) were added to the parasites using serial 3-fold dilutions to cover a range of concentrations from about 10 μM to 1 nM. After 48 h incubation at 37°C under a humidified 5% CO2 atmosphere, 10 μl of 10% Triton X-100 and 100 X stock SYBR Green I (Sigma-Aldrich) in PBS was added and florescence measured (excitation 497 nm; emission 520 nm) after 1 h incubation in the dark using a Spectra Max Gemini XPS fluorimeter (Molecular Devices). Data were log transformed and EC50 values were determined using GraphPad Prism 6 (GraphPad Software). In the absence of growth inhibiting compounds, the parasites grew from an initial density of 5 X 10^5 cells/mL to ~3 X 10^6 cells/mL.

J774A.1 macrophages = experiment: Cytotoxicity to J774A.1 macrophages (dose-response); type: cell-based; settings: for EC50: Mus musculus
Experimental: Cytotoxicity of compounds to J774.A1 macrophages was determined by dose-response curves as described previously. In the absence of growth inhibitors or DMSO, the macrophages increased in number ~6-fold over 96 h in Minimum Essential Medium, employed for both macrophage infections and the toxicity assays.

[2] = tested on: L. donovani intracellular amastigotes; experiment: Growth inhibition of intracellular amastigotes in J774A.1 macrophages (Renilla luciferase luminescence); type: cell-based; settings: Leishmania donovani
Experimental: as §1

[3] = tested on: L. mexicana intracellular amastigotes; experiment: as above; type: cell-based; settings: Leishmania mexicana
Experimental: as §1
[…]. These were chosen as candidates for further study. From these 230 compounds, we were able to repurchase 113 from commercial vendors. These compounds were characterized for purity by ultra-performance liquid chromatography using ultraviolet spectroscopy and evaporative light scattering detection and identity by mass spectrometry. All validated compounds were profiled for activity against intracellular amastigotes, the disease-causing stage of the life cycle. Intracellular amastigote activity was determined using a strain of L. mexicana in which the Renilla luciferase gene was integrated into the rRNA locus, allowing robust expression for measuring amastigote growth within cultured macrophages. All 113 compounds were applied at 1 μM concentration for 96 h to J774A.1 macrophages infected with L. mexicana luciferase-expressing parasites. […].
Next, we generated dose-response curves for these 55 compounds against intracellular amastigotes and independently against J774A.1 macrophages to establish the relative potency of each compound against the pathogen and its host cell. […]. The nine remaining compounds, each representing a unique chemical scaffold (compounds 1–9, Fig 3), were designated top hits (Fig 1).

[4] = Mouse plasma protein binding assay (Rapid Equilibrium Dialysis); type: in vitro ADME; settings: mouse, mouse plasma, pH 7.4; Conc. 4 μM
Experimental: A Rapid Equilibrium Dialysis (RED) Plate (Thermo Scientific, catalog #, PI-90007) was used to determine the percentage of compound binding to mouse plasma proteins (Thermo Scientific, catalog #, 50642085). The positive control for this experiment was propranolol HCl (295.807 g/mol) and the internal standard was warfarin in methanol (2 μM). 10 mM stocks of compound in DMSO were diluted with DMSO and acetonitrile to three different intermediate concentrations: high (2 mM), medium (0.4 mM) and low (0.08 mM) concentration in DMSO:acetonitrile (1:4, v:v). 10 mM stock of propranolol in DMSO were diluted to 0.4 mM concentration in DMSO:acetonitrile (1:4 v:v).
In 10 Eppendorf tubes, the control (10 μL) or each of three compound dilutions (10 μL) were each added to separate aliquots of 990 μL mouse plasma. Potassium phosphate buffer (500 μL, 0.1 M, pH 7.4, 37 °C) was placed in every white well of the RED plate and each plasma/compound mixture was added to each of 3 RED wells (300 μL). The RED plate holds triplicate samples of one control (final concentration […]) and one compound (final concentrations: 20 μM, 4 μM, […]). The RED Plate was sealed and incubated at 37 °C shaking at 250 rpm for 4 hours. After incubation, aliquots (50 μL) from each well in the RED plate were transferred to an assay plate (pION Inc., MA, #110323). In order to create a uniform matrix in every well of the assay plate, plasma (50 μL) was added to each of the wells that already contained buffer and potassium phosphate buffer (50 μL) was added to each of the wells that already contained plasma/compound. Pre-cooled internal standard (300 μL) was added to the assay plate to quench the reaction. The quenched plate was then centrifuged (5810R, Eppendorf, Westbury, NY) at 3000 rpm for 20 minutes.
The percentage of free compound [1] and bound compound [2] was calculated usng the AUC ratio of compound to warfarin from the SIR spectra. For reporting data, % Free = Concentration buffer/Concentration plasma *100 %, and % Bound = 100% - % Free.

[5] = tested on: L. mexicana promastigotes; experiment: High-throughput assay for growth inhibition of promastigotes (SYBR Green I); type: cell-based
Experimental: Into each well of 384-well microplates (black polystyrene, clear bottom, tissue culture treated, Corning), 15 μl of medium (DME-L [41] plus 100 μM xanthine and 10% heat inactivated fetal calf serum) was dispensed with a liquid dispenser (Matrix Wellmate, Thermo Scientific). Stock compounds, dissolved in DMSO at a fixed concentration of 10 mM, were pin-transferred (V&P Scientific) into the microplate to the desired final concentration using an automated robot arm. To each well of the plates, 15 μl of L. mexicana promastigotes (strain MNYZ/BZ/62/M379, 2 x 10^6/mL) was added with the Wellmate dispenser. Microplates were incubated (Liconic) at 28°C and 5% CO2 for 72 h. After incubation, 10 μl of lysis/dye solution (5X SYBR Green I, 5% Triton X-100 in PBS) was added to each well. Plates were shaken at 1000 rpm, incubated at room temperature for 20 min, and fluorescence signal measured (excitation 485 nm, emission 535 nm) with the Envision plate reader (PerkinElmer).
The initial promastigote screen was performed with the St. Jude Chemical Biology & Therapeutics (CBT) library consisting of 596,414 compounds. Library compounds were filtered by several computational methods to remove those likely to have undesirable physical or biological properties and biased towards oral bioavailability. In this way we focused the collection on compounds most likely to be effective in cellular models of activity, without structural features that would pose a challenge to drug development. In the primary screen, compounds were applied to promastigotes of L. mexicana at a fixed concentration of 10 μM, and parasite proliferation was monitored, following a 72 h incubation, by quantifying total DNA content after lysis using the nucleic acid binding dye SYBR Green I [45].
To confirm the activity of the primary hits and improve confidence that they would be reasonable starting points for drug development, a variety of secondary screens and analyses were employed (Fig 1A). […]. In parallel, mammalian cell growth inhibition was determined using in vitro proliferation assays with normal human fibroblasts (BJ cells). […]. To further triage the hits, we carried out a chemical structure analysis for the 2,703 primary hit compounds utilizing topology mapping and clustering methodology. We identified a wide range of chemotypes, including several scaffolds with potential structure-activity relationships (SARs), based on their dose response activity (Fig 2). Validated hits were then culled by eliminating scaffolds with less favorable drug development properties such as charged planar structures, reactive electrophilic warheads, known pan-assay interference motifs (PAINS), and compounds displaying gross rule of five noncompliance. Finally, we prioritized scaffolds with the possibility of facile chemical modification to generate a substantial number of structural analogs for future SAR and structure-property relationship (SPR) studies.

[6] = bloodstream form, mean ± standard deviation, n = 2
[7] = J774.A1, host macrophage, tested up to 10 μM, mean ± standard deviation, n = 2, read-out: J774A.1 EC50
[8] = J774.A1, intracellular amastigotes in J774A.1 macrophages, mean ± standard deviation, n = 2, read-out: L. donovani EC50
[9] = J774.A1, intracellular amastigotes in J774A.1 macrophages, mean ± standard deviation, n = 2, read-out: L. mexicana EC50
[10] = Leishmania mexicana, bracketed references point to earlier reports of antileishmanial activity, read-out: EC50 of known inhibitors identified by the HTS
[11] = bracketed references point to earlier reports of antileishmanial activity, read-out: EC50 of known inhibitors identified by the HTS

`CC[C@H]1CN2CCc3cc(OC)c(OC)cc3[C@@H]2C[C@@H]1C[C@H]1NCCc2cc(O)c(OC)cc21` [Compound 1, cephaeline] showed an EC50 [1] of 0.8 ± 0.2 µM, an EC50 (J774A.1 macrophages; J774.A1, read-out: J774A.1 EC50) of 0.92 ± 0.9 µM and an EC50 ([2]; J774.A1, read-out: L. donovani EC50) of 0.002 ± 0.0005 µM. For the same compound, the EC50 ([3]; J774.A1, read-out: L. mexicana EC50) was 0.0006 ± 0.0002 µM.
For `Fc1ccccc1Nc1nc(NCc2ccccc2)c2ccccc2n1` [Compound 2], the EC50 [1, 6] was 2 µM, the EC50 (J774A.1 macrophages; [7]) was over 10 µM and the “Reduction in viability / inhibition of host macrophage J774A.1 in dose-response studies” value (J774A.1 macrophages; up to 10 μM) was “no reduction in viability”. For the same compound, the EC50 [2, 8] was 0.13 ± 0.02 µM and the EC50 [3, 9] was 0.044 ± 0.023 µM.
In the case of `CCN(CC)c1ccc(C2N(C)c3ccccc3N2C)cc1` [Compound 6], the EC50 [1, 6] is reported as 2 ± 0.4 µM, the EC50 (J774A.1 macrophages; [7]) is reported as 3.5 ± 0.7 µM and the EC50 [2, 8] is reported as 0.006 ± 0.007 µM. For the same compound, the EC50 [3, 9] was 0.0055 ± 0.0049 µM.
`CCCCCCCCn1c2c(c(=N)c3ccccc31)CCC2` [Compound 7] showed an EC50 [1, 6] of 0.46 ± 0.4 µM, an EC50 (J774A.1 macrophages; [7]) of 0.7 ± 0.3 µM and an EC50 [2, 8] of 0.011 ± 0.008 µM. The EC50 [3, 9] was 0.007 ± 0.006 µM.
Compound `CC(C)NCC(O)COc1cccc2ccccc12` (centres unmarked) [Propranolol HCl, reference compound] has a fraction unbound at 4 h, 4 μM [4] of 0.284.
Work on `Cc1c2oc3c(C)ccc(C(=O)N[C@@H]4C(=O)N[C@H](C(C)C)C(=O)N5CCC[C@H]5C(=O)N(C)CC(=O)N(C)[C@@H](C(C)C)C(=O)O[C@@H]4C)c3nc-2c(C(=O)N[C@@H]2C(=O)N[C@H](C(C)C)C(=O)N3CCC[C@H]3C(=O)N(C)CC(=O)N(C)[C@@H](C(C)C)C(=O)O[C@@H]2C)c(N)c1=O` [actinomycin D] (I: T[dV]P[Sar][NMeV] / II: T[dV]P[Sar][NMeV]; ester I:1-I:C, II:1-II:C; linker I:N-II:N via Actinocin(9to1)) yielded an EC50 [5, 10] of 0.36 µM.
With `COc1ccc(C[C@H]2NC[C@H](O)[C@H]2OC(C)=O)cc1` [anisomycin] the EC50 [5, 11] was 0.58 µM.
For `CN(C)c1ccc(C(=C2C=CC(=[N+](C)C)C=C2)c2ccc(N(C)C)cc2)cc1` [crystal violet], the EC50 [5, 10] was 0.29 µM.
Compound `CCN(CC)C(=S)SSC(=S)N(CC)CC` [disulfiram] has an EC50 [5, 10] of 0.5 µM.
With `N=C(N)c1ccc(OCCCCCOc2ccc(C(=N)N)cc2)cc1` [pentamidine] the “Inhibition of proliferation (HTS positive control)” value ([5]; 72 h, primary screen conditions) was 100% and the EC50 ([5]; Leishmania mexicana, 72 h, median over HTS plates, interquartile range 1.7–3.1, read-out: EC50 of the control per screening plate (median)) was 2.3 µM.
With `CN(C)C(=S)SSC(=S)N(C)C` [thiram] the EC50 [5, 10] was 1.77 µM.
With avicin the EC50 [5, 11] was 1.5 µM.
